Measurements taken from article PMC12655637, “Design, Synthesis, and Mechanistic Study of Novel Ciprofloxacin/Thiazole Chalcone Hybrids as Potential Anticancer Agents” (Pharmaceuticals, 2025).

Columns and labels:
SK-MEL-2 = assay: NCI-60 screening, one-dose (10 µM) and five-dose, SRB; format: cell-based, human
OVCAR-8 = assay: as above; format: cell-based, human
MDA-MB-468 = assay: as above; format: cell-based, human; details: Homo sapiens
Text: Control cells Test cells FLD
available usually at NCI library.
An aliquot of frozen drug concentrate is […]

HT29 = assay: as above; format: cell-based, human
HL-60(TB) = assay: as above; format: cell-based, human
MDA-MB-435 = assay: as above; format: cell-based
SW-620 = assay: as above; format: cell-based, human
MOLT-4 = assay: as above; format: cell-based, human
HOP-62 = assay: as above; format: cell-based, human
SNB-19 = assay: as above; format: cell-based
UACC-257 = assay: as above; format: cell-based, human
SF-539 = assay: as above; format: cell-based, human; details: five-dose, SF-539
OVCAR-3 = assay: as above; format: cell-based
[1] = tested on: 60 human cancer cell lines; assay: NCI-60 screening, full panel (mean growth, MID a, ranges over all lines)
Description: The screening was performed in accordance with the protocols set forth by the Drug Evaluation Department of the National Cancer Institute (NCI), Bethesda, USA, for in vitro anticancer efficacy at a single concentration of 10 µM against a panel of 60 cancer cell lines derived from nine distinct organs (https://dctd.cancer.gov/data-tools-biospecimens/data (accessed on 15 March 2023 and 6 January 2024)) [37].
The log10 GI50, log10 TGI, and log10 LC50 values were subsequently calculated as the averages of the log10 values of the respective individual GI50, TGI, and LC50 measurements. Negative numbers signified the most sensitive cell lines.
One way to measure a compound’s selectivity is to divide its subpanel MID^b (in μM) by the MID^a (in μM), which is the average sensitivity of all cell lines to the test agent.
At the National Cancer Institute (NCI) in Bethesda, USA, researchers examined the anticancer potential of the target compounds under investigation using nine panels of sixty different cell lines obtained from nine different cancers that were housed in the NCI library. Following the protocols laid out by the National Cancer Institute (https://dctd.cancer.gov/data-tools-biospecimens/data (accessed on 15 March 2023 and 6 January 2024)), the screening procedures were carried out [37]. The anticancer screening was carried out at a single dose of 10^−5 M; the results obtained were expressed as growth inhibition (%).
The anti-cancer potential of the tested compounds was evaluated at the National cancer institute (NCI), Bethesda, USA, against 9 panels of 60 various cell lines derived from nine human tumours available usually at NCI library. The procedures for the screening were described in details in NCI website (dttp://www.dtp.nci.nih.gov.) and were done according to NCI protocols. The anticancer screening was carried out at single dose of 10^-5 M. The results obtained as growth inhibition (%).
Cell lines were grown in Roswell Park Memorial Institute medium (RPMI) with 5% fetal bovine serum and 2% μM L-glutamine. Cancer cells are inoculated into 96 well microtiter plates in 100 μL at plating densities ranging from 5000 to 40,000 cells/well depending on the doubling time of individual cell lines. Then microtiter plates are incubated at 37 °C, 5% CO2, 95% air and 100% relative humidity for 24 h prior to the addition of the tested compounds. After 24 h, two plates of each cell line are fixed in situ with trichloroacetic acid (TCA). The tested compounds were dissolved in dimethyl sulfoxide (DMSO) and stored in the freezer prior to use. An aliquot of frozen drug concentrate is diluted to the desired concentration with complete medium containing 50 μg/mL gentamicin.

CCRF-CEM = assay: NCI-60 screening, one-dose (10 µM) and five-dose, SRB; format: cell-based, human
[2] = Homo sapiens, five-dose, SK-MEL-2
[3] = Homo sapiens, five-dose, OVCAR-8
[4] = Homo sapiens, HT-29, five-dose, HT29
[5] = Homo sapiens, five-dose, SW-620
[6] = Homo sapiens, five-dose, MOLT-4
[7] = Homo sapiens, five-dose, HOP-62
[8] = Homo sapiens, five-dose, SNB-19
[9] = Homo sapiens, five-dose, UACC-257
[10] = Homo sapiens, five-dose, OVCAR-3

Compound: Cc1nc(SCC(=O)N2CCN(c3cc4c(cc3F)c(=O)c(C(=O)O)cn4C3CC3)CC2)sc1C(=O)/C=C/c1cccc(F)c1 [Compound 4d, (E)-1-Cyclopropyl-6-fluoro-7-(4-(2-((5-(3-(3-fluorophenyl)acryloyl)-4-methylthiazol-2-yl)thio)acetyl)piperazin-1-yl)-4-oxo-1,4-dihydroquinoline-3-carboxylic Acid]
- activity at 10 µM (SK-MEL-2; Homo sapiens, 10 μM, SK-MEL-2, Melanoma, read-out: Growth percentage): -15.4%
- GI50 (SK-MEL-2; [2]): > 100 µM
- IC50 (SK-MEL-2; [2]): > 100 µM
- CC50 (SK-MEL-2; Homo sapiens, five-dose, SK-MEL-2, read-out: LC50 (the source's name)): > 100 µM
- TGI (SK-MEL-2; five-dose, SK-MEL-2): 100.0 µM
- activity at 10 µM (OVCAR-8; Homo sapiens, 10 μM, OVCAR-8, Ovarian Cancer, read-out: Growth percentage): 35.2%
- GI50 (OVCAR-8; [3]): > 100 µM
- IC50 (OVCAR-8; [3]): > 100 µM
- CC50 (OVCAR-8; Homo sapiens, five-dose, OVCAR-8, read-out: LC50 (the source's name)): > 100 µM
- TGI (OVCAR-8; five-dose, OVCAR-8): 100.0 µM
- activity at 10 µM (MDA-MB-468; MDA-MB-468, 10 μM, MDA-MB-468, Breast Cancer, read-out: Growth percentage): -11.1%
- GI50 (MDA-MB-468; five-dose, MDA-MB-468): 4.1 µM
- IC50 (MDA-MB-468; five-dose, MDA-MB-468): > 100 µM
- CC50 (MDA-MB-468; five-dose, MDA-MB-468, read-out: LC50 (the source's name)): > 100 µM
- activity at 10 µM (HT29; Homo sapiens, HT-29, 10 μM, HT29, Colon Cancer, read-out: Growth percentage): 3.7%
- GI50 (HT29; [4]): > 100 µM
- IC50 (HT29; [4]): 100 µM
- CC50 (HT29; Homo sapiens, HT-29, five-dose, HT29, read-out: LC50 (the source's name)): > 100 µM
- TGI (HT29; five-dose, HT29): 1.91 µM
- activity at 10 µM (HL-60(TB); Homo sapiens, HL-60, 10 μM, HL-60(TB), Leukemia, read-out: Growth percentage): -99.8%
- IC50 (HL-60(TB); Homo sapiens, HL-60, five-dose, HL-60(TB)): 2.9 µM
- IC50 (HL-60(TB); Homo sapiens, HL-60, leukemia HL-60): 3.7 µM
- GI50 (HL-60(TB); Homo sapiens, five-dose, HL-60(TB)): 1.78 µM
- CC50 (HL-60(TB); Homo sapiens, five-dose, HL-60(TB), read-out: LC50 (the source's name)): 11 µM
- TGI (HL-60(TB); five-dose, HL-60(TB)): 3.8 µM
- GI50 (MDA-MB-435; Homo sapiens, MDA-MB-435): 3.7 µM
- IC50 (MDA-MB-435; Homo sapiens, MDA-MB-435): 6.9 µM
- activity at 10 µM (MDA-MB-435; Homo sapiens, MDA-MB-435, read-out: Growth percentage, 10 μM, MDA-MB-435, Melanoma): -3.7%
- CC50 (MDA-MB-435; Homo sapiens, five-dose, MDA-MB-435, read-out: LC50 (the source's name)): > 100 µM
- TGI (MDA-MB-435; five-dose, MDA-MB-435): 100.0 µM
- activity at 10 µM (SW-620; Homo sapiens, 10 μM, SW-620, Colon Cancer, read-out: Growth percentage): 3.2%
- GI50 (SW-620; [5]): 3.7 µM
- IC50 (SW-620; [5]): 4.7 µM
- CC50 (SW-620; Homo sapiens, five-dose, SW-620, read-out: LC50 (the source's name)): > 100 µM
- TGI (SW-620; five-dose, SW-620): 100.0 µM
- activity at 10 µM (MOLT-4; Homo sapiens, 10 μM, MOLT-4, Leukemia, read-out: Growth percentage): 0.79%
- GI50 (MOLT-4; [6]): 3.4 µM
- IC50 (MOLT-4; [6]): 4.8 µM
- LC50 (concentration killing 50% of cells) (MOLT-4; [6]): 53.7 µM
- TGI (MOLT-4; five-dose, MOLT-4): 0.34 µM
- activity at 10 µM (HOP-62; Homo sapiens, HOP-62, 10 μM, HOP-62, Non-Small-Cell Lung Cancer, read-out: Growth percentage): -55.3%
- GI50 (HOP-62; [7]): 7.4 µM
- IC50 (HOP-62; [7]): 72.4 µM
- CC50 (HOP-62; Homo sapiens, five-dose, HOP-62, read-out: LC50 (the source's name)): > 100 µM
- TGI (HOP-62; five-dose, HOP-62): 100.0 µM
- activity at 10 µM (SNB-19; Homo sapiens, 10 μM, SNB-19, CNS Cancer, read-out: Growth percentage): 12.2%
- GI50 (SNB-19; [8]): 6.9 µM
- IC50 (SNB-19; [8]): 28.2 µM
- CC50 (SNB-19; Homo sapiens, five-dose, SNB-19, read-out: LC50 (the source's name)): > 100 µM
- TGI (SNB-19; five-dose, SNB-19): 100.0 µM
- activity at 10 µM (UACC-257; Homo sapiens, 10 μM, UACC-257, Melanoma, read-out: Growth percentage): 53.9%
- GI50 (UACC-257; [9]): 46.8 µM
- IC50 (UACC-257; [9]): > 100 µM
- CC50 (UACC-257; Homo sapiens, five-dose, UACC-257, read-out: LC50 (the source's name)): > 100 µM
- TGI (UACC-257; five-dose, UACC-257): 100.0 µM
- GI50 (SF-539; Homo sapiens): 2 µM
- IC50 (SF-539; Homo sapiens): 4.1 µM
- CC50 (SF-539; Homo sapiens, read-out: LC50 (the source's name)): > 100 µM
- TGI (SF-539): 100.0 µM
- activity at 10 µM (OVCAR-3; Homo sapiens, 10 μM, OVCAR-3, Ovarian Cancer, read-out: Growth percentage): -10.9%
- GI50 (OVCAR-3; [10]): 13.5 µM
- IC50 (OVCAR-3; [10]): > 100 µM
- CC50 (OVCAR-3; Homo sapiens, five-dose, OVCAR-3, read-out: LC50 (the source's name)): > 100 µM
- TGI (OVCAR-3; five-dose, OVCAR-3): 100.0 µM
- CC50 ([1]; Homo sapiens, read-out: LC50): 0.6 to 100 µM
- activity at 10 µM ([1]; Homo sapiens, read-out: Mean growth percentage): 20.2%
- Full-panel MG-MID ([1]; mean sensitivity across all cell lines in the panel): 70.2 µM
- activity at 10 µM (CCRF-CEM; Homo sapiens, 10 μM, Leukemia, read-out: Growth percentage): 17.1%
- GI50 (CCRF-CEM; Homo sapiens, five-dose): 2.88 µM
- IC50 (CCRF-CEM; Homo sapiens, five-dose): 4.37 µM
- CC50 (CCRF-CEM; Homo sapiens, five-dose, read-out: LC50 (the source's name)): > 100 µM
- TGI (CCRF-CEM; five-dose): 4.3 µM
